A value given as a limit tells only on which side of the number the result lay.

Assay [1] addresses Human GPR35 (Homo sapiens, UniProt Q9HC97, S294R). The experiment in a line: Alternative Beta-Arrestin Assay (JumpIn 294R Tango U2OS cells, LiveBLAzer-FRET B/G). The class given is cell-based. To be noted: for EC50: Human GPR35 expressing JumpIn 294R Tango U2OS cells, 5 hours treatment; for % inhibition at 50 μM: Table 2. A digest of the protocol: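 Beta-arrestin recruitment measured as FRET ratio change using CCF4-AM loading for 2 h, following 5-hour compound treatment of GPR35 (S294R) JumpIn Tango U2OS cells. Zaprinast served as positive control; EC50 values from four-parameter dose-response fits.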

Assay [2] concerns the target Human GPR35 (Homo sapiens, UniProt Q9HC97). Briefly: Beta-Arrestin Assay (Tango U2OS cells, LiveBLAzer-FRET B/G). The class given is cell-based. The note with it: Human GPR35 expressing Tango U2OS cells, 5 hours treatment. The procedure:
Human GPR35 expressing Tango U2OS cells were plated in 384-well format in clear bottom plates at a cell density of 10,000 cells/well and allowed to grow overnight. The next day, cells were treated with serially diluted test compounds for 5 hours. LiveBLAzer-FRET B/G (CCF4-AM) detection reagents were then added and cells were allowed to incubate for 2 hours before reading plates on a BioTek Cytation 5 plate reader. Zaprinast was used as a positive control for dose-response curves. In order to determine EC50 values, data were fit to a four-parameter dose-response curve.

Chain of Human GPR35 (Homo sapiens, UniProt Q9HC97, S294R) (Q9HC97 whole entry S294R): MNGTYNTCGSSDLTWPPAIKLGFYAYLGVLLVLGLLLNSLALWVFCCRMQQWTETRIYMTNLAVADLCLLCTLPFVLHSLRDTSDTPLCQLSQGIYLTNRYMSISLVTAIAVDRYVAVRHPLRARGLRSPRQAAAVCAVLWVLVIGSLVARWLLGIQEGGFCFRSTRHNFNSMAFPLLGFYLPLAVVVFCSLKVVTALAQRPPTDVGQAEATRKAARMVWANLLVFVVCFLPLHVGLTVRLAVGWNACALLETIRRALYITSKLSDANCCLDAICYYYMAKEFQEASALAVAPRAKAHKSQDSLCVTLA
Chain of Human GPR35 (Homo sapiens, UniProt Q9HC97) (Q9HC97 whole entry): as the sequence (Q9HC97 whole entry S294R) above, with R294S counted along it

As to `CCOc1cc(C#N)ccc1-c1nc2[nH]nnc2c(=O)[nH]1` [Compound 142, 3-ethoxy-4-(7-oxo-6,7-dihydro-3H-[1,2,3]triazolo[4,5-d]pyrimidin-5-yl)benzonitrile], the EC50 on Human GPR35 [1] and on Human GPR35 [2] was ≤ 10 µM in each case.

Consider `CCOc1cc(-c2ccc(C(=O)OC)cc2)ccc1-c1nc2[nH]nnc2c(=O)[nH]1` [Compound 108, Methyl 3′-ethoxy-4′-(7-oxo-6,7-dihydro-3H-[1,2,3]triazolo[4,5-d]pyrimidin-5-yl)-[1,1′-biphenyl]-4-carboxylate], for which the half-maximal effective concentration (EC50) at Human GPR35 [1] and on Human GPR35 [2] was ≤ 10 µM in each case.

`CCOc1cc(-c2ccccc2)ccc1-c1nc2[nH]nnc2c(=O)[nH]1` [Compound 101, 5-(3-Ethoxy-[1,1′-biphenyl]-4-yl)-3,6-dihydro-7H-[1,2,3]triazolo[4,5-d]pyrimidin-7-one]: the EC50 at Human GPR35 [1] and on Human GPR35 [2] was ≤ 10 µM throughout.

Regarding `CCOc1cc(C(=O)Nc2ccccn2)ccc1-c1nc2[nH]nnc2c(=O)[nH]1` [Compound 140, 3-ethoxy-4-(7-oxo-6,7-dihydro-3H-[1,2,3]triazolo[4,5-d]pyrimidin-5-yl)-N-(pyridin-2-yl)benzamide], the EC50 at Human GPR35 [1] and on Human GPR35 [2] was ≤ 10 µM in each case.

On to `CCOc1cc(-c2cncc(C(=O)O)c2)ccc1-c1nc2[nH]nnc2c(=O)[nH]1` [Compound 113, 5-(3-Ethoxy-4-(7-oxo-6,7-dihydro-3H-[1,2,3]triazolo[4,5-d]pyrimidin-5-yl)phenyl)nicotinic acid], for which the EC50 on Human GPR35 [1] and at Human GPR35 [2] was ≤ 10 µM each time.

Take `CCOc1cc(C(=O)Nc2cccnc2)ccc1-c1nc2[nH]nnc2c(=O)[nH]1` [Compound 141, 3-ethoxy-4-(7-oxo-6,7-dihydro-3H-[1,2,3]triazolo[4,5-d]pyrimidin-5-yl)-N-(pyridin-3-yl)benzamide]: the EC50 at Human GPR35 [1] and at Human GPR35 [2] was ≤ 10 µM throughout.

With `CCOc1cc(-c2ccc(F)c(C(=O)O)c2)ccc1-c1nc2[nH]nnc2c(=O)[nH]1` [Compound 183, 3′-ethoxy-4-fluoro-4′-(7-oxo-6,7-dihydro-3H-[1,2,3]triazolo[4,5-d]pyrimidin-5-yl)-[1,1′-biphenyl]-3-carboxylic acid], the half-maximal effective concentration (EC50) at Human GPR35 [1] and on Human GPR35 [2] was ≤ 10 µM in each case.

On to `O=C(O)c1ccc(-c2nc3[nH]nnc3c(=O)[nH]2)cc1` [Compound 144, 4-(7-oxo-6,7-dihydro-3H-[1,2,3]triazolo[4,5-d]pyrimidin-5-yl)benzoic acid], for which the half-maximal effective concentration (EC50) on Human GPR35 [1] and at Human GPR35 [2] was ≤ 10 µM throughout.

On to `CCOc1cc(-c2ccccc2C(=O)O)ccc1-c1nc2[nH]nnc2c(=O)[nH]1` [Compound 109, 3′-Ethoxy-4′-(7-oxo-6,7-dihydro-3H-[1,2,3]triazolo[4,5-d]pyrimidin-5-yl)-[1,1′-biphenyl]-2-carboxylic acid], for which the EC50 (usually the concentration that produces a half-maximal response) on Human GPR35 [1] is 10 to 50 µM; on Human GPR35 [2], ≤ 10 µM.

Turning to `CCOc1cc(C(=O)N2CCC[C@H]2C(=O)O)ccc1-c1nc2[nH]nnc2c(=O)[nH]1` [Compound 158, (3-ethoxy-4-(7-oxo-6,7-dihydro-3H-[1,2,3]triazolo[4,5-d]pyrimidin-5-yl)benzoyl)-L-proline], the “% inhibition at 50 μM” value at Human GPR35 [1] amounted to 48% inhibition at. In addition, the EC50 at Human GPR35 [2] is > 10 µM.

On to `CCOc1cc(-c2ccccc2CC(=O)OC)ccc1-c1nc2[nH]nnc2c(=O)[nH]1` [Compound 118, Methyl 2-(3′-ethoxy-4′-(7-oxo-6,7-dihydro-3H-[1,2,3]triazolo[4,5-d]pyrimidin-5-yl)-[1,1′-biphenyl]-2-yl)acetate], for which the EC50 at Human GPR35 [1] and on Human GPR35 [2] was ≤ 10 µM each time.

Turning to `O=c1[nH]c(-c2ccc(CO)cc2)nc2[nH]nnc12` [Compound 148, 5-(4-(hydroxymethyl)phenyl)-3,6-dihydro-7H-[1,2,3]triazolo[4,5-d]pyrimidin-7-one], the EC50 at Human GPR35 [1] was > 50 µM; on Human GPR35 [2], > 10 µM.

With `CCOc1cc(N2CCCC2=O)ccc1-c1nc2[nH]nnc2c(=O)[nH]1` [Compound 165, 5-(2-ethoxy-4-(2-oxopyrrolidin-1-yl)phenyl)-3,6-dihydro-7H-[1,2,3]triazolo[4,5-d]pyrimidin-7-one], on Human GPR35 [1], the “% inhibition at 50 μM” value is listed as 66% inhibition at. Moreover, at Human GPR35 [2], the EC50 is ≤ 10 µM.

`CCOc1cc(-c2ccncc2)ccc1-c1nc2[nH]nnc2c(=O)[nH]1` [Compound 104, 5-(2-Ethoxy-4-(pyridin-4-yl)phenyl)-3,6-dihydro-7H-[1,2,3]triazolo[4,5-d]pyrimidin-7-one]: the EC50 on Human GPR35 [1] and at Human GPR35 [2] was ≤ 10 µM throughout.

Turning to `CCOc1cc(C(=O)N2CC[C@H](C(=O)O)C2)ccc1-c1nc2[nH]nnc2c(=O)[nH]1` [Compound 160, (S)-1-(3-ethoxy-4-(7-oxo-6,7-dihydro-3H-[1,2,3]triazolo[4,5-d]pyrimidin-5-yl)benzoyl)pyrrolidine-3-carboxylic acid], the EC50 at Human GPR35 [1] and on Human GPR35 [2] was ≤ 10 µM throughout.

Take `CCOc1cc(-c2ccc(C(=O)OC)s2)ccc1-c1nc2[nH]nnc2c(=O)[nH]1` [Compound 116, Methyl 5-(3-ethoxy-4-(7-oxo-6,7-dihydro-3H-[1,2,3]triazolo[4,5-d]pyrimidin-5-yl)phenyl)thiophene-2-carboxylate]: the EC50 at Human GPR35 [1] and at Human GPR35 [2] was ≤ 10 µM throughout.

With `CCOc1cc(-c2ccccn2)ccc1-c1nc2[nH]nnc2c(=O)[nH]1` [Compound 105, 5-(2-Ethoxy-4-(pyridin-2-yl)phenyl)-3,6-dihydro-7H-[1,2,3]triazolo[4,5-d]pyrimidin-7-one], the 50% effective concentration (EC50) at Human GPR35 [1] and on Human GPR35 [2] was ≤ 10 µM each time.

`CCOC(=O)Cn1cc(-c2ccc(-c3nc4[nH]nnc4c(=O)[nH]3)c(OCC)c2)cn1` [Compound 126, Ethyl 2-(4-(3-ethoxy-4-(7-oxo-6,7-dihydro-3H-[1,2,3]triazolo[4,5-d]pyrimidin-5-yl)phenyl)-1H-pyrazol-1-yl)acetate]: the EC50 at Human GPR35 [1] and at Human GPR35 [2] was ≤ 10 µM each time.

Take `CCOc1cc(-c2ccc(CC(=O)O)cc2)ccc1-c1nc2[nH]nnc2c(=O)[nH]1` [Compound 115, 2-(3′-Ethoxy-4′-(7-oxo-6,7-dihydro-3H-[1,2,3]triazolo[4,5-d]pyrimidin-5-yl)-[1,1′-biphenyl]-4-yl)acetic acid]: the EC50 at Human GPR35 [1] and on Human GPR35 [2] was ≤ 10 µM in each case.

For the compound `CCOc1cc(-c2cc(C(=O)O)cc(C(=O)O)c2)ccc1-c1nc2[nH]nnc2c(=O)[nH]1` [Compound 157, 3′-ethoxy-4′-(7-oxo-6,7-dihydro-3H-[1,2,3]triazolo[4,5-d]pyrimidin-5-yl)-[1,1′-biphenyl]-3,5-dicarboxylic acid], the EC50 on Human GPR35 [1] and on Human GPR35 [2] was ≤ 10 µM throughout.

Consider `CCOc1cc(C(N)=O)ccc1-c1nc2[nH]nnc2c(=O)[nH]1` [Compound 135, 3-Ethoxy-4-(7-oxo-6,7-dihydro-3H-[1,2,3]triazolo[4,5-d]pyrimidin-5-yl)benzamide], for which the concentration giving a half-maximal response (EC50) on Human GPR35 [1] and on Human GPR35 [2] was ≤ 10 µM in each case.

With `CCOc1cc(N2CCCC(C(=O)O)C2)ccc1-c1nc2[nH]nnc2c(=O)[nH]1` (centres unmarked) [Compound 173, 1-(3-ethoxy-4-(7-oxo-6,7-dihydro-3H-[1,2,3]triazolo[4,5-d]pyrimidin-5-yl)phenyl)piperidine-3-carboxylic acid], the EC50 at Human GPR35 [1] and on Human GPR35 [2] was ≤ 10 µM throughout.

The values are drawn from patent US11053251B2, “GPR35 modulators” (Prometheus Biosciences, Inc., priority 2019, dated 2021).
